Assay results reported in patent publication US10689595B2 (THE REGENTS OF THE UNIVERSITY OF CALIFORNIA, priority 2016, dated 2020).
One block for each molecule: values may come before it.

Legend:
naïve rats = test: von Frey mechanical allodynia assay in naïve rats; assay type: in vivo, Sprague-Dawley rats; settings: methyl esters, 1 μg intraplantar, FIG. 6A
Description: Male Sprague-Dawley rats weighing approximately 250-300 grams were obtained from Charles River Laboratories. On the day of the test, rats were brought to the testing apparatus and allowed to acclimate. The apparatus is a raised metal mesh platform with clear acrylic chambers to enclose rats but allow them to move freely. After 30 minutes the rats were tested with a von Frey aesthesiometer for their non-treated baseline withdrawal thresholds using a rigid tip on the plantar surface of the rat hind paw though the mesh floor. The scores are grams of force applied to the hind paw required to elicit a withdrawal. The pretreatment baseline score was considered the pain-free baseline (BL) and was assigned 100% for further response calculations.
For the pain assay, 20-HETE methyl ester, 20-HEPE methyl ester, or 22-HDoHE methyl ester, formulated in 10% EtOH in saline, were injected intraplantar in naïve rats. Withdrawal thresholds were measured at 15, 30, 60, 90, 120 and 150 minutes post injection. Reported scores are calculated as a percent of the pretreatment baseline score with an average of 6 rats (3 trials per rat) with SEM for the group.
The methyl esters compounds of 20-HETE, 20-HEPE and 22-HDoHE were tested for their ability to induce mechanical allodynia in vivo. For the assay, naïve rats were injected intraplantar with 1 μg of each ester and tested with an electronic von Frey aesthesiometer.

human COX-2 = target: T1, human COX-2 (Homo sapiens, UniProt P35354); test: COX Fluorescent Inhibitor Screening Assay, COX-2; assay type: biochemical; settings: for inhibition at 100 µM: read-out: % inhibition at 100 μM COX-2, triplicate; for COX-2 activity changes: up to 100 μM concentrations
T1 construct: purchased Cayman Chemical 700100
T1 sequence (P35354 18-604): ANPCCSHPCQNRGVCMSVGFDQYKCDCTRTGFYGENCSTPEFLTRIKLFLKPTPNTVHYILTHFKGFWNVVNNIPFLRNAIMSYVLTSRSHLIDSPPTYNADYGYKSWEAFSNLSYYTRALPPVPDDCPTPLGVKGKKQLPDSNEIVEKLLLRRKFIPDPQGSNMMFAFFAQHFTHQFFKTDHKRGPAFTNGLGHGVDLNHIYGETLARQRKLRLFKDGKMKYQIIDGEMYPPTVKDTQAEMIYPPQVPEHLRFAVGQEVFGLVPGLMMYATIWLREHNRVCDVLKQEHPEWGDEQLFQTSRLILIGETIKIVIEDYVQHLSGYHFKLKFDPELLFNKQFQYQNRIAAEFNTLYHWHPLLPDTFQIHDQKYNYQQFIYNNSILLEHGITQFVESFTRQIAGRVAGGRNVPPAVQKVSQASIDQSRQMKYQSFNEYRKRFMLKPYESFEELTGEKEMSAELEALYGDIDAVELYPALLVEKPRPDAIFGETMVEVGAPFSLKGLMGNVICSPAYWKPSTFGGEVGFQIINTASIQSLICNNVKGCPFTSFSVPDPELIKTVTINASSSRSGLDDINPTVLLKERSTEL
Description: (§1) Briefly, to a series of supplied reaction buffer solutions (150 μl, 100 mM Tris-HCl, pH 8.0) with either COX-1 or COX-2 (10 μl) enzyme in the presence of Heme (10 μl) and fluorometric substrate (10 μl) were added 10 μl of 100 μM concentration of the test compound solutions. The reactions were initiated by adding 10 μl of ARA solution and then incubated for two minutes at room temperature. Percent inhibition was calculated by comparison from the 100% initial activity sample value (no inhibitor).

mTRPV1 = target: T2, mTRPV1 (Mus musculus, UniProt Q704Y3); test: calcium influx assay in HEK293 cells heterologously expressing mTRPV1; assay type: cell-based; settings: for concentration that produced significant Ca2+ influx: HEK293 cells expressing mTRPV1, fluo-4, FIG. 4; for TRPV1 channel activation: at low doses
T2 construct: GFP; expressed in transfected cells; host or cells: HEK-293 (transient transfection; plasmid a gift from Jie Zheng, UC Davis)
Description: The mTRPV1 plasmid that contains a GFP tag was a generous gift from Professor Jie Zheng at University of California, Davis. The HEK-293 cells were cultured in a poly-D-lysine coated T75 dish at an initial density of 4×10^5 cells/dish and maintained in culture medium (DMEM+10% FBS+100 units/ml peniclillin, 0.1 mg/ml streptomycine) in an incubator at 37° C. with 5% CO2 and 95% humidity. At 50% confluence, the HEK-293 cells were transfected with 10 μg of mTRPV1 plasmid using Lipofectamine 2000 (Invitrogen Corporation, Carlsbad, Calif., USA) in antibiotic—as well as serum-free culture medium. After 6 hour incubation, the serum-free medium was replaced with normal culture medium and the cells were cultured for another 48 hours. The transfection efficiency was determined by examined the GFP expression as well as the Ca^2+ response after exposure to capsaicin.
The HEK-293 cells transiently transfected mTRPV1 were planted onto poly-D-lysine (Sigma-Aldrich, St. Louis, Mo., USA) coated black-well, clear-bottom, 96-well plates (Corning, Coring, N.Y., USA) at an initial density of 40,000/well. The cells were then cultured in DMEM medium for 18-24 hours as described previously (Ref. 38). Briefly, the growth medium was removed and replaced with dye loading buffer (100 μl/well) containing 4 μM fluo-4 and 0.5 mg/ml BSA in Locke's buffer (in mM: 8.6 HEPES, 5.6 KCl, 154 NaCl, 5.6 Glucose, 1.0 MgCl2, 2.3 CaCl2), 0.0001 glycine, pH 7.4). After 1 hour incubation in dye loading buffer, cells were washed four times in fresh Locke's buffer and transferred to the plate chamber of FLIPR^TETRA (Molecular Devices, Sunnyvale, Calif., USA). The final volume of Locke's buffer in each well was 150 μl. The cells were excited at 488 nm and Ca^2+ bound fluo-4 emission at 535 nm was recorded. Fluorescence readings were taken every 1 second for 120 s to establish the baseline. Different concentrations (4×) of compounds were added to the cells from a compound plate in a volume of 50 μl at a rate of 30 μl/s using a programmable robotic system. The fluorescence signals were recorded for an additional 380 seconds. All the experiments were performed at room temperature. The Ca^2+ data were represented as Fluo-4 fluorescence units (F/Fo). For quantifying the Ca^2+ response, the area under the curve (AUC) was used. Graphing and statistical analyses were performed using GraphPad Prism software (GraphPad Software Inc., San Diego, Calif.). Statistical significance was determined by an ANOVA and, where appropriate, a Dunnett's multiple comparison test and p values below 0.05 was considered statistically significant.
The influence of 20-HETE, 20-HEPE, and 22-HDoHe on mTRPV1 was measured in HEK293 cells heterologously expressed mTRPV1 using calcium influx assay. […] The discrepancy between previous study and current study is likely due to the fact that the mTRPV1 was used in the current study, while the hTRPV1 was used in the previous study.

ovine COX-1 = target: T3, ovine COX-1 (Ovis aries, UniProt P05979); test: COX Fluorescent Inhibitor Screening Assay, COX-1; assay type: biochemical; settings: read-out: % inhibition at 100 μM COX-1, triplicate
T3 construct: purchased Cayman Chemical 700100
T3 sequence (P05979 25-600): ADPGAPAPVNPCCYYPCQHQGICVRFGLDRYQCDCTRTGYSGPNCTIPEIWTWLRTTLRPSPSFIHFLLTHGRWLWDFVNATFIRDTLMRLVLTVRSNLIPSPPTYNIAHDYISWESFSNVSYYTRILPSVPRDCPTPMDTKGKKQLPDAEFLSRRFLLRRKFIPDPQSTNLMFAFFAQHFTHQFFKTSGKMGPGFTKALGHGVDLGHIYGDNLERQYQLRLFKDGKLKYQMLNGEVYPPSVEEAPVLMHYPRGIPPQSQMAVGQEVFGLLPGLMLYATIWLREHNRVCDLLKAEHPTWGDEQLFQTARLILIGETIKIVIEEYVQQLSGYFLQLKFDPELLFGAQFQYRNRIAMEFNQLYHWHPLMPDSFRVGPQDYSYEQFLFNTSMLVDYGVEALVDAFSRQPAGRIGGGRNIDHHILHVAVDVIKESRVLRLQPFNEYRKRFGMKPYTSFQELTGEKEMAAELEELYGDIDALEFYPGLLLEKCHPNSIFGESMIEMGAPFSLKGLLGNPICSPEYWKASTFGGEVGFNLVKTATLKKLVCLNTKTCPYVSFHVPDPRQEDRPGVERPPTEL
Description: as §1

hTRPV1 = hTRPV1 (Homo sapiens, UniProt Q8NER1); settings: 10 μM, previous study (Ref 24); cited from earlier work
[1] = tested on: VEGF-induced angiogenesis; test: Matrigel plug angiogenesis assay; assay type: in vivo; settings: co-addition in Matrigel with 100 ng VEGF, C57BL/6 mice
Description: FIG. 7A is a simplified scheme of the animal experiment: Matrigel containing VEGF (angiogenesis inducer) and 22-HDoHE or vehicle were injected into C57BL/6 mice, after 4-7 days of treatment, the Matrigel plugs were dissected and subjected to angiogenesis analysis.
Angiogenesis, the process of formation of new blood vessels from pre-existing vessels, has been established to be critical for multiple human diseases including cancer. Vascular endothelial growth factor (VEGF) is the most important angiogenesis inducer.

[2] = tested on: human dermal lymphatic endothelial cells (HMVEC-dLy); test: VEGF-C-induced tube formation; assay type: cell-based; settings: dose-dependent manner, FIG. 10
Description: The effect of 22-HDoHE on lymphangiogenesis was evaluated using a vascular endothelial growth factor-C (VEGF-C)-induced tube formation in human dermal lymphatic endothelial cells (HMVEC-dLy).

B16F10 melanoma = B16F10 melanoma primary tumor growth model; assay type: in vivo; settings: 0.5 mg/kg/day by mini-pumps, 2-wk treatment, C57BL/6 mice
Description: FIG. 9 is a photograph and a bar graph showing systematic treatment of 0.5 mg/kg/day 22-HDoHE inhibited ˜50% of B16F10 melanoma growth in C57BL/6 male mice. B16F10 melanoma cells (200,000 cells per mouse) were sub-Q injected into C57BL/6 mice to induce primary tumor growth of melanoma, then the mice were treated with 22-HDoHE using mini-pumps at a dose of 0.5 mg/kg/day. After 2-wk treatment, the mice were sacrificed to dissect the tumors for analysis.
Angiogenesis has been well established to play an essential role in cancer, through providing nutrients and oxygen to the tumors tissues to promote tumor progression. The effect of 22HDoHE on primary tumor growth in mice was studied using a highly aggressive B16F10 melanoma model in C57BL/6 mice.

[3] = tested on: human umbilical vein endothelial cells (HUVECs); test: VEGF-induced endothelial cell migration (Boyden chamber); assay type: cell-based; settings: dose range of 1-3 μM, 10 ng/mL VEGF, 6 hours
Description: FIG. 8 is a series of photographs showing 22-HDoHE inhibition of VEGF-induced endothelial cell migration in HUVEC cells. The cell migration assay was conducted using a standard Boyden chamber assay with 10 ng/mL VEGF as chemoattractant, and the assay time was 6 hours.
It was tested whether 22-HDoHE has direct anti-angiogenic actions in primary endothelial cells, using a VEGF-induced endothelial cell migration in human umbilical vein endothelial cells (HUVECs).

HMVEC-dLy = test: complete medium-induced HMVEC-dLy migration, Boyden chamber assay; assay type: cell-based, human; settings: FIG. 11

T2 sequence (Q704Y3 whole entry): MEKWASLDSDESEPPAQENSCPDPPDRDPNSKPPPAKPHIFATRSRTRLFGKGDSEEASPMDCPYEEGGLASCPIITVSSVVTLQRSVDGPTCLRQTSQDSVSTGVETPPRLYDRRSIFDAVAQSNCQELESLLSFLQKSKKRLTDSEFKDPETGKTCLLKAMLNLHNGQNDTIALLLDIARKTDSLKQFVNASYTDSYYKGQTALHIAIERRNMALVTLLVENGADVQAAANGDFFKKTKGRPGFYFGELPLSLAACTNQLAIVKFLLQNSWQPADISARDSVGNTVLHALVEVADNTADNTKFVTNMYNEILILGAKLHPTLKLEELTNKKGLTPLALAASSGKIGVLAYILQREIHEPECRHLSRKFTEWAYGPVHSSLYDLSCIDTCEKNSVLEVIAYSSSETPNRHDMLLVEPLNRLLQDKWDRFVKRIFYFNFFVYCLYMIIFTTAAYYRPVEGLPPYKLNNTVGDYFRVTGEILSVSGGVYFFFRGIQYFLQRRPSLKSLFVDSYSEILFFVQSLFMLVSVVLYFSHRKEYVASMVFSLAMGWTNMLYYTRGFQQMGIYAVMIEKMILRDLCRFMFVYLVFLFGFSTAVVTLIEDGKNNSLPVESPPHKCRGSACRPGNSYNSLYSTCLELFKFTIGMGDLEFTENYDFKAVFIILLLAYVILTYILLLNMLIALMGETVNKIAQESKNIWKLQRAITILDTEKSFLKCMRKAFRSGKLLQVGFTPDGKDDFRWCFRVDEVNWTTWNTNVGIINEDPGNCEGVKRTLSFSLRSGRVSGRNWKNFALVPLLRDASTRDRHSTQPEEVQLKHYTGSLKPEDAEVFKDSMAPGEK
Sequence of hTRPV1 (Q8NER1 whole entry): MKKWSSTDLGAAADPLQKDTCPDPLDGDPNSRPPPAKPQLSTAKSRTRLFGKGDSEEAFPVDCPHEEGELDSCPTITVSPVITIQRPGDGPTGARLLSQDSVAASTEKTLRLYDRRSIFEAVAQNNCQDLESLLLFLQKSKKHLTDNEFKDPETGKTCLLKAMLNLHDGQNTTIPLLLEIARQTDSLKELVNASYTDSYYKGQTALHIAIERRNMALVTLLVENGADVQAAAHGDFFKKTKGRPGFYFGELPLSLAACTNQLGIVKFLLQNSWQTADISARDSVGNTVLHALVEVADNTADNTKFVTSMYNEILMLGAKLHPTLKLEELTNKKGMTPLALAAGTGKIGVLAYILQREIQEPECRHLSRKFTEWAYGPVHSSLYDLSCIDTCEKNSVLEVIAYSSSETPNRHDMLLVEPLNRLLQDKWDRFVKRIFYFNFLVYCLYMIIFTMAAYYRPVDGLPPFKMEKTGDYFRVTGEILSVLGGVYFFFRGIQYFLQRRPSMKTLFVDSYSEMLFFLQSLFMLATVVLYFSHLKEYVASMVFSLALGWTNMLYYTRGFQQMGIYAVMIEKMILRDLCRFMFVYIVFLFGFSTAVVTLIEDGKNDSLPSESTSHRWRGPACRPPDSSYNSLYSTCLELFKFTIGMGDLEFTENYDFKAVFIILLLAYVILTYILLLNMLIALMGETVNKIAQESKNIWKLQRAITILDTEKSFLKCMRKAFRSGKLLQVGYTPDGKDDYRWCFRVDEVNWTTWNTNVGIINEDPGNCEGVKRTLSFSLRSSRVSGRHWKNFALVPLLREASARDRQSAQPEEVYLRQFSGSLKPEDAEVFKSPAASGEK

SMILES: COC(=O)CCC/C=C\C/C=C\C/C=C\C/C=C\C/C=C\CCO
nociceptive (withdrawal) thresholds, von Frey (naïve rats): neither 20-HEPE nor 22-HDoHE induced a similar decrease in thresholds

SMILES: COC(=O)CCC/C=C\C/C=C\C/C=C\C/C=C\CCCCCO
nociceptive (withdrawal) thresholds, von Frey (naïve rats): decreased nociceptive thresholds acutely

inhibition at 100 µM (human COX-2): 0%
COX-2 activity changes (human COX-2; FIG. 5): No COX-2 activity changes
concentration that produced significant Ca2+ influx (mTRPV1): 10 µM
TRPV1 channel activation (mTRPV1): did not activate TRPV1 channels
inhibition at 100 µM (ovine COX-1): 37.1%
SMILES: O=C(O)CCC/C=C\C/C=C\C/C=C\C/C=C\C/C=C\CCO [20-HEPE, (5Z,8Z,11Z,14Z,17Z)-20-Hydroxyicosa-5,8,11,14,17-pentaenoic Acid]

inhibition at 100 µM (human COX-2): 0%
COX-2 activity changes (human COX-2; FIG. 5): No COX-2 activity changes
Ca2+ response (mTRPV1; at the concentrations examined, FIG. 4): marginal Ca^2+ response
inhibition at 100 µM (ovine COX-1): 27.5%
SMILES: O=C(O)CCC/C=C\C/C=C\C/C=C\C/C=C\CCCCCO [20-HETE, (5Z,8Z,11Z,14Z)-20-Hydroxyicosa-5,8,11,14-tetraenoic Acid]
hTRPV1 activation (hTRPV1): activates hTRPV1
mTRPV1 activation (mTRPV1; at or below concentration of 10 uM): does not appear to be an mTRPV1 activator

inhibition at 100 µM (human COX-2): 1%
COX-2 activity changes (human COX-2; FIG. 5): No COX-2 activity changes
concentration that produced significant Ca2+ influx (mTRPV1): ~3 µM
TRPV1 channel activation (mTRPV1): did not activate TRPV1 channels
inhibition at 100 µM (ovine COX-1): 38.1%
SMILES: O=C(O)CC/C=C\C/C=C\C/C=C\C/C=C\C/C=C\C/C=C\CCO [22-HDoHE, (4Z,7Z,10Z,13Z,16Z,19Z)-22-Hydroxydocosa-4,7,10,13,16,19-hexaenoic Acid]
VEGF-induced angiogenesis in Matrigel plugs [1]: almost abolished VEGF-induced angiogenesis
VEGF-C-induced tube formation in HMVEC-dLy cells [2]: significantly inhibited
reduction of B16F10 tumor growth (B16F10 melanoma): ~50%
VEGF-induced HUVECs migration [3]: significantly inhibited
complete medium-induced HMVEC-dLy migration (HMVEC-dLy): significantly inhibit

SMILES: COC(=O)CC/C=C\C/C=C\C/C=C\C/C=C\C/C=C\C/C=C\CCO [22-HDoHE]
nociceptive (withdrawal) thresholds, von Frey (naïve rats): neither 20-HEPE nor 22-HDoHE induced a similar decrease in thresholds

COX inhibitory activity (% inhibition), COX-2 (human COX-2; FIG. 5): Less than 0%
SMILES: CC/C=C\C/C=C\C/C=C\C/C=C\C/C=C\CCCC(=O)O [EPA, eicosapentaenoic acid, reference compound]
